What all share (type): binding
The target in experiment [1] is T1, human serum albumin (HSA) (Homo sapiens, UniProt P02768).
T1 construct: gene ALB; fatty acid-free human serum albumin
Description: competitive displacement of heme-Fe(III) (spectrophotometry) and dansyl-arginine (fluorescence), pH […] °C.

Experiment [2] concerns the target T1, human serum albumin (HSA). Kind of experiment: spectrophotometric titration ([…]-460 nm), pH […] °C.
Experiment [3] has as its target T1, human serum albumin (HSA). Kind of experiment: spectrofluorimetric titration (ex […] nm, em […] nm), pH […] °C.
Experiment [4] has as its target T1, human serum albumin (HSA). Described as above. The source holds these as a separate data set.

Each structure is given as a SMILES string.

Experimental findings from publication PMC6841977, “Ruxolitinib binding to human serum albumin: bioinformatics, biochemical and functional characterization in JAK2V617F^+ cell models” (Scientific Reports, 2019) are described below.

T1 sequence (P02768 25-609): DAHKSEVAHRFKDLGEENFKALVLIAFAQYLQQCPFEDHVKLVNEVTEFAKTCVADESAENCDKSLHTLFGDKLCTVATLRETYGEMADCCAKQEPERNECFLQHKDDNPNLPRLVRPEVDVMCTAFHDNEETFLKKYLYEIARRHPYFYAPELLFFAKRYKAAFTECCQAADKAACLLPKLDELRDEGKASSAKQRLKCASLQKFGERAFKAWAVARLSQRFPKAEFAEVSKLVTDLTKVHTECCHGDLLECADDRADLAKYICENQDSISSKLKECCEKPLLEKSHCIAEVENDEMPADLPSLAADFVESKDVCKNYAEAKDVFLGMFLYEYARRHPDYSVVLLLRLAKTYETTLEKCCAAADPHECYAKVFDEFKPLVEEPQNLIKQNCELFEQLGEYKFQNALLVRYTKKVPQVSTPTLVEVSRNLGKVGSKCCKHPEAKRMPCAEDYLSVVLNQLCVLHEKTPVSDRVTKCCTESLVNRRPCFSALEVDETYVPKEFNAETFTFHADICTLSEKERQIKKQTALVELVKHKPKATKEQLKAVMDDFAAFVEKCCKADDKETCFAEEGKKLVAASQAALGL

For orientation: Kd means the constant that tells how readily two partners part at equilibrium. A low value points to tighter binding. `N#CC[C@H](C1CCCC1)n1cc(-c2ncnc3[nH]ccc23)cn1` [ruxolitinib]: in experiment [1], the Kd is 3.1 ± 0.4 µM.
Molecule `C=CC1=C(C)C2=Cc3c(C=C)c(C)c4[n]3[Fe+][n]3c(c(C)c(CCC(=O)O)c3=CC3=NC(=C4)C(C)=C3CCC(=O)O)=CC1=N2` [heme-Fe(III)] had a Kd in experiment [2] of 0.076 ± 0.008 µM.
In experiment [3], `CN(C)c1cccc2c(S(=O)(=O)N[C@@H](CCCNC(=N)N)C(=O)O)cccc12` [dansyl-arginine] yielded a Kd of 27 ± 3 µM.
`CN(C)c1cccc2c(S(=O)(=O)N(C)CC(=O)O)cccc12` [dansyl-sarcosine]: the Kd in experiment [4] is 5.1 ± 0.5 µM.
